Experimental data taken from patent EP2255814A1, “AGENT FOR INCREASING THE QUANTITY OF HYALURONIC ACID” (Nagase ChemteX Corporation, priority 2008, dated 2009).

What was measured:
[1] = test system: Normal human dermal fibroblasts (NHDF(AD)); experiment: Hyaluronan production promoting effect in fibroblasts (ELISA of culture supernatant); assay type: cell-based; settings: phospholipid liposome at 100 µg/mL, 24 hours
Experimental: Normal human dermal fibroblasts (NHDF(AD); Kurabo Industries, Ltd.) were seeded at 2×10^5/well in 24-well plates. After 24-hour preculture, the culture media were removed and replaced with culture media each containing a different phospholipid liposome at 100 µg/mL, i.e. , the PI-PS containing liposome obtained in Preparation Example 2, the PI liposome obtained in Preparation Example 3, or the PS liposome obtained in Preparation Example 4. The culture was maintained for 24 hours. The culture supernatant was collected and hyaluronan therein was quantified by the ELISA method.
A hyaluronan binding protein (HABP; SEIKAGAKU CORPORATION) was added at 2 µg/mL to 96-well plates, which were then allowed to stand at 4°C for 24 hours. After this, the wells were washed. Blocking was performed at 4°C for 24 hours using Block Ace (Dainippon Sumitomo Pharma Co., Ltd.). After the wells were washed, a hyaluronan standard (Wako Pure Chemical Industries, Ltd.) or the culture supernatant was added to the wells and 1-hour incubation was performed at 37°C. After the wells were washed, biotinylated HABP (SEIKAGAKU CORPORATION) was added to the wells and 2-hour incubation was performed at 37°C. […] After the reaction at 37°C for 30 minutes, the absorbance at 405 nm was measured.

hyaluronan synthase HAS2 = experiment: Augmentation effect on mRNA expression of hyaluronan synthase HAS2 (semi-quantitative RT-PCR); assay type: cell-based; settings: human fibroblast NHDF(AD), phospholipid liposome in culture medium, 24 hours; concentrations only in Fig. 1
Experimental: Normal human fibroblasts (NHDF(AD); Kurabo Industries Ltd.) were seeded at 8×10^5/well in 6-well plates. After 24-hour preculture, the culture media were removed and replaced with culture media each containing a different phospholipid liposome prepared in Preparation Examples 2 to 4. The culture was maintained for 24 hours. Then, after removal of the culture medium and addition of 1 mL of ISOGEN (NIPPON GENE), RNA was extracted from the cells according to the usual method described in the attachment of ISOGEN.
cDNA preparation was performed using SuperScriptIII First-Strand Synthesis System for RT-PCR (Invitrogen) according to the operating procedures described in the attachment of the kit. RT-PCR was performed using primers below. HAS2 (Forward): […] (SEQ ID NO: 1) HAS2 (Reverse): […] (SEQ ID NO: 2) β-actin (Forward): […] (SEQ ID NO: 3) β-actin (Reverse): […] (SEQ ID NO: 4)
Using each of the obtained cDNA and the HAS2 primer set, PCR was performed for 29 cycles of 94°C for 1 min, 58°C for 1 min, and 72°C for 1 min. […] After completion of PCR, the PCR product was analyzed by electrophoresis in 1.5% agarose gel. Each band strength was determined by densitometry and the degree of increase in HAS2 mRNA expression was semi-quantitatively assessed by comparison of the HAS2/β-actin ratios between samples and the control. […]

Substance	production of hyaluronan [1]	mRNA expression of HAS2 (HAS2/β-actin ratio relative to control cells) (hyaluronan synthase HAS2)
L-α-phosphatidylinositol Na [PI]	significantly increased	significantly increased
L-α-phosphatidylserine [PS]	significantly increased	significantly increased
